This passage reports IC50 and EC50 results from US11267825B2 (AICURIS GMBH & CO. KG, priority 2017, dated 2022).

pEC50, pIC50: −log10 of the molar value.

One assay has as its target HBV core protein (UniProt P03146). It counts as biochemical. The following applies: read-out: Assembly Activity (IC50); BODIPY-FL labelled core protein, assembly started with NaCl, read after 6 min. Put shortly:
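Compounds tested at 8 concentrations in 0.5-log steps from 100, 31.6 or 10 μM against 1.0–2.0 μM BODIPY-FL-labelled Cys150 core dimers (residues 1–149), 50 mM HEPES pH 7.5. NaCl ([…] final) triggered assembly; quenching read at 6 min, 477/525 nm, with 2.5 M and 0 M NaCl as controls; EC50 by nonlinear fit.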

For a further assay, the system named is HBV. Nature of the assay: Determination of HBV DNA from the supernatants of HepAD38 cells (anti-HBV activity). Type of assay: cell-based, hepatitis B virus. Conditions: Hepatitis B virus, 144 h; HBV DNA in HepAD38 supernatant at day 6; read-out: Cell Activity (EC50). Put shortly: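 EC50 values were obtained by non-linear regression of HBV DNA copy numbers measured by qPCR against pCH-9/3091 plasmid standards. The DNA came from filtered supernatants collected on day 6. Before that, tetracycline-withdrawn HepAD38 cells had been exposed to serial half-log compound dilutions, with tetracycline-treated cells as the non-producing control.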

Sequence of HBV core protein (P03146 whole entry, looked up, the tested form may be a part): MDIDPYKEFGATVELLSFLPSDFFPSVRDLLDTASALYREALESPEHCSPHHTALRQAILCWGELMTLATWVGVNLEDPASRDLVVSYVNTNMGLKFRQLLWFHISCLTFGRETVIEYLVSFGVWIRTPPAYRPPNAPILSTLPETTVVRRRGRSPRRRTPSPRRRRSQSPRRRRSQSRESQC

The pIC50 is the negative decadic logarithm of the IC50, by convention in mol/L. As a reminder, the pEC50 is the EC50 on a negative log10 scale, so that one unit is a factor of ten. In the case of `O=C(c1cc2c(F)ccc(F)c2[nH]1)N1CCc2nc(NCC3(CO)CC3)sc2C1` [Example 59, [1-({[5-(4,7-difluoro-1H-indole-2-carbonyl)-4H,5H,6H,7H-[1,3]thiazolo[5,4-c]pyridin-2-yl]amino}methyl)cyclopropyl]methanol], the pIC50 on HBV core protein was above 5.30. For the same compound, in the assay with HBV, the pEC50 was above 6.00.

With `COC1(CNc2nc3c(s2)CN(C(=O)c2cc4ccccc4[nH]2)CC3)CCC1` [Example 414, 5-(1H-indole-2-carbonyl)-N-[(1-methoxycyclobutyl)methyl]-4H,5H,6H,7H-[1,3]thiazolo[5,4-c]pyridin-2-amine], the pIC50 on HBV core protein is above 5.30. The pEC50 with HBV is above 6.00.

With `CC(O)CNc1nc2c(s1)CN(C(=O)c1cc3c(Cl)cc(F)cc3[nH]1)CC2` (stereo not shown) [Example 142, 1-{[5-(4-chloro-6-fluoro-1H-indole-2-carbonyl)-4H,5H,6H,7H-[1,3]thiazolo[5,4-c]pyridin-2-yl]amino}propan-2-ol], the pIC50 on HBV core protein was above 5.30. Also, the negative-log EC50 (pEC50) with HBV is above 6.00.

Take `Cc1nc2c(s1)CN(C(=O)c1cc3c(Cl)ccc(Cl)c3[nH]1)CC2` [Example 186, 4,7-dichloro-2-{2-methyl-4H,5H,6H,7H-[1,3]thiazolo[5,4-c]pyridine-5-carbonyl}-1H-indole]: the pIC50 on HBV core protein was above 4.00. Also, the pEC50 with HBV was above 4.00.

`Nc1nc2c(s1)CN(C(=O)c1cc3c(F)ccc(F)c3[nH]1)CC2` [Example 170, 5-(4,7-difluoro-1H-indole-2-carbonyl)-4H,5H,6H,7H-[1,3]thiazolo[5,4-c]pyridin-2-amine]: the pIC50 on HBV core protein was above 5.30. Moreover, the pEC50 in the assay on HBV was above 6.00.

On to `CCc1cc(F)cc2[nH]c(C(=O)N3CCc4nc(N[C@H]5CC[C@@H](O)CC5)sc4C3)cc12` [Example 394, (1s,4s)-4-{[5-(4-ethyl-6-fluoro-1H-indole-2-carbonyl)-4H,5H,6H,7H-[1,3]thiazolo[5,4-c]pyridin-2-yl]amino}cyclohexan-1-ol], for which the pIC50 on HBV core protein is above 5.30. The pEC50 with HBV was above 6.00.

Turning to `CC1Cc2nc(N)sc2CN1C(=O)c1cc2ccccc2[nH]1` (stereo not shown) [Example 107, 5-(1H-indole-2-carbonyl)-6-methyl-4H,5H,6H,7H-[1,3]thiazolo[5,4-c]pyridin-2-amine], the pIC50 at HBV core protein was above 5.30. In the assay with HBV, the pEC50 was above 6.00.

Take `O=C(c1cc2c(F)cc(F)cc2[nH]1)N1CCc2nc(NCC3(CO)CC3)sc2C1` [Example 75, [1-({[5-(4,6-difluoro-1H-indole-2-carbonyl)-4H,5H,6H,7H-[1,3]thiazolo[5,4-c]pyridin-2-yl]amino}methyl)cyclopropyl]methanol]: the negative logarithm of the IC50 (pIC50) on HBV core protein is above 5.30. For the same compound, the pEC50 in the assay on HBV was above 6.00.

Regarding `CCc1cc(F)cc2[nH]c(C(=O)N3CCc4nc(N)sc4C3)cc12` [Example 7, 5-(4-ethyl-6-fluoro-1H-indole-2-carbonyl)-4H,5H,6H,7H-[1,3]thiazolo[5,4-c]pyridin-2-amine], the pIC50 on HBV core protein is above 5.30. In addition, the pEC50 with HBV is above 6.00.

For `N#Cc1ccc(F)c2[nH]c(C(=O)N3CCc4nc(N)sc4C3)cc12` [Example 79, 2-{2-amino-4H,5H,6H,7H-[1,3]thiazolo[5,4-c]pyridine-5-carbonyl}-7-fluoro-1H-indole-4-carbonitrile], the pIC50 on HBV core protein is above 4.00. Further, the pEC50 with HBV is 5.00 to 6.00.

For the compound `CNC(=O)Nc1nc2c(s1)CN(C(=O)c1cc3c(Cl)cc(F)cc3[nH]1)CC2` [Example 266, 1-[5-(4-chloro-6-fluoro-1H-indole-2-carbonyl)-4H,5H,6H,7H-[1,3]thiazolo[5,4-c]pyridin-2-yl]-3-methylurea], the negative-log IC50 (pIC50) at HBV core protein is above 5.30. The pEC50 with HBV was above 6.00.

For the compound `CCc1ccc(F)c2[nH]c(C(=O)N3CCc4nc(NCC5CCOC5)sc4C3)cc12` (stereo not shown) [Example 254, 5-(4-ethyl-7-fluoro-1H-indole-2-carbonyl)-N-[(oxolan-3-yl)methyl]-4H,5H,6H,7H-[1,3]thiazolo[5,4-c]pyridin-2-amine], the pIC50 on HBV core protein was above 5.30. Moreover, in the assay with HBV, the pEC50 is above 6.00.

With `O=C(c1cc2c(Cl)c(F)ccc2[nH]1)N1CCc2nc(NCC3(CO)CC3)sc2C1` [Example 251, [1-({[5-(4-chloro-5-fluoro-1H-indole-2-carbonyl)-4H,5H,6H,7H-[1,3]thiazolo[5,4-c]pyridin-2-yl]amino}methyl)cyclopropyl]methanol], the pIC50 at HBV core protein is above 5.30. The pEC50 with HBV was above 6.00.

Take `O=C(c1cc2c(F)cc(F)cc2[nH]1)N1CCc2nc(OCCO)sc2C1` [Example 102, 2-{[5-(4,6-difluoro-1H-indole-2-carbonyl)-4H,5H,6H,7H-[1,3]thiazolo[5,4-c]pyridin-2-yl]oxy}ethan-1-ol]: the pIC50 on HBV core protein is 5.00 to 5.30. In addition, the pEC50 in the assay on HBV is 5.00 to 6.00.

Consider `Nc1nc2c(s1)CN(C(=O)c1cc3c(C(F)F)ccc(F)c3[nH]1)CC2` [Example 341, 5-[4-(difluoromethyl)-7-fluoro-1H-indole-2-carbonyl]-4H,5H,6H,7H-[1,3]thiazolo[5,4-c]pyridin-2-amine], for which, on HBV core protein, the pIC50 was above 5.30. For the same compound, the pEC50 with HBV was 5.00 to 6.00.

`CC(C)[C@H](N)C(=O)OCC1(CNc2nc3c(s2)CN(C(=O)c2cc4ccccc4[nH]2)CC3)CC1` [Example 235, [1-({[5-(1H-indole-2-carbonyl)-4H,5H,6H,7H-[1,3]thiazolo[5,4-c]pyridin-2-yl]amino}methyl)cyclopropyl]methyl (2S)-2-amino-3-methylbutanoate]: on HBV core protein, the pIC50 is above 5.30. Besides, the pEC50 in the assay with HBV was above 6.00.

On to `O=C(CNc1nc2c(s1)CN(C(=O)c1cc3ccccc3[nH]1)CC2)N1CCCCC1` [Example 233, 2-{[5-(1H-indole-2-carbonyl)-4H,5H,6H,7H-[1,3]thiazolo[5,4-c]pyridin-2-yl]amino}-1-(piperidin-1-yl)ethan-1-one], for which the pIC50 at HBV core protein was above 4.00. Also, the negative-log EC50 (pEC50) in the assay with HBV was 5.00 to 6.00.

Turning to `O=C(c1cc2ccccc2[nH]1)N1CCc2nc(NC3CC(F)(F)C3)sc2C1` [Example 416, N-(3,3-difluorocyclobutyl)-5-(1H-indole-2-carbonyl)-4H,5H,6H,7H-[1,3]thiazolo[5,4-c]pyridin-2-amine], the negative-log IC50 (pIC50) at HBV core protein was 5.00 to 5.30. In the assay on HBV, the negative-log EC50 (pEC50) was above 6.00.

With `O=C(c1cc2ccccc2[nH]1)N1CCc2nc(CNCC3(CO)CC3)sc2C1` [Example 41, {1-[({[5-(1H-indole-2-carbonyl)-4H,5H,6H,7H-[1,3]thiazolo[5,4-c]pyridin-2-yl]methyl}amino)methyl]cyclopropyl}methanol], the pIC50 on HBV core protein was above 4.00. For the same compound, in the assay with HBV, the negative logarithm of the EC50 (pEC50) was 5.00 to 6.00.

Regarding `O=C(c1cc2ccccc2[nH]1)N1CCc2nc(OCc3ccccc3)sc2C1` [Example 158, 2-[2-(benzyloxy)-4H,5H,6H,7H-[1,3]thiazolo[5,4-c]pyridine-5-carbonyl]-1H-indole], the pIC50 at HBV core protein is above 4.00. The pEC50 in the assay on HBV is 5.00 to 6.00.

Turning to `O=C(c1cc2ccc(Cl)cc2[nH]1)N1CCc2nc(NCC3(O)CCC3)sc2C1` [Example 331, 1-({[5-(6-chloro-1H-indole-2-carbonyl)-4H,5H,6H,7H-[1,3]thiazolo[5,4-c]pyridin-2-yl]amino}methyl)cyclobutan-1-ol], the negative logarithm of the IC50 (pIC50) on HBV core protein was 5.00 to 5.30. Also, the pEC50 in the assay on HBV is above 6.00.

In the case of `O=C(c1cc2ccccc2[nH]1)N1CCc2nc(NC(CO)C3CCOC3)sc2C1` (stereo not shown) [Example 297, 2-{[5-(1H-indole-2-carbonyl)-4H,5H,6H,7H-[1,3]thiazolo[5,4-c]pyridin-2-yl]amino}-2-(oxolan-3-yl)ethan-1-ol], the pIC50 on HBV core protein was above 5.30. The pEC50 in the assay on HBV was above 6.00.

On to `CC(C)(C)Nc1nc2c(s1)CN(C(=O)c1cc3ccccc3[nH]1)CC2` [Example 71, N-tert-butyl-5-(1H-indole-2-carbonyl)-4H,5H,6H,7H-[1,3]thiazolo[5,4-c]pyridin-2-amine], for which the pIC50 at HBV core protein was above 5.30. In addition, the pEC50 in the assay on HBV was above 6.00.

With `O=C(c1cc2ccccc2[nH]1)N1CCc2nc(NCC(CO)CC3CC3)sc2C1` (stereo not shown) [Example 282, 2-(cyclopropylmethyl)-3-{[5-(1H-indole-2-carbonyl)-4H,5H,6H,7H-[1,3]thiazolo[5,4-c]pyridin-2-yl]amino}propan-1-ol], the pIC50 on HBV core protein was 5.00 to 5.30. In addition, the pEC50 in the assay on HBV is above 6.00.

Take `Nc1nc2c(s1)CN(C(=O)c1cc3ccc(Br)cc3[nH]1)CC2` [Example 92, 5-(6-bromo-1H-indole-2-carbonyl)-4H,5H,6H,7H-[1,3]thiazolo[5,4-c]pyridin-2-amine]: at HBV core protein, the pIC50 was above 5.30. Besides, the pEC50 in the assay with HBV was above 6.00.

Regarding `O=C(c1cc2c(Cl)cc(F)cc2[nH]1)N1CCc2nc(NC3(CO)CCC3)sc2C1` [Example 223, (1-{[5-(4-chloro-6-fluoro-1H-indole-2-carbonyl)-4H,5H,6H,7H-[1,3]thiazolo[5,4-c]pyridin-2-yl]amino}cyclobutyl)methanol], at HBV core protein, the pIC50 was above 5.30. Further, the pEC50 with HBV was above 6.00.

Take `CC(O)c1cc(F)cc2[nH]c(C(=O)N3CCc4nc(N)sc4C3)cc12` (stereo not shown) [Example 15, 1-(2-{2-amino-4H,5H,6H,7H-[1,3]thiazolo[5,4-c]pyridine-5-carbonyl}-6-fluoro-1H-indol-4-yl)ethan-1-ol]: the pIC50 at HBV core protein is 5.00 to 5.30. Besides, the pEC50 in the assay with HBV was 5.00 to 6.00.

Consider `CCc1cccc2[nH]c(C(=O)N3CCc4nc(NCC5CCOC5)sc4C3)cc12` (stereo not shown) [Example 115, 5-(4-ethyl-1H-indole-2-carbonyl)-N-[(oxolan-3-yl)methyl]-4H,5H,6H,7H-[1,3]thiazolo[5,4-c]pyridin-2-amine], for which, on HBV core protein, the pIC50 was above 5.30. In addition, the pEC50 in the assay on HBV was above 6.00.

Regarding `CC(C)(C)NC(=O)Nc1nc2c(s1)CN(C(=O)c1cc3ccccc3[nH]1)CC2` [Example 264, 3-tert-butyl-1-[5-(1H-indole-2-carbonyl)-4H,5H,6H,7H-[1,3]thiazolo[5,4-c]pyridin-2-yl]urea], the negative logarithm of the IC50 (pIC50) at HBV core protein was 5.00 to 5.30. In addition, the pEC50 with HBV is above 6.00.
